Publication PMC2796434 (Bioorganic & medicinal chemistry, 2008)

Molecular target: T1, GV sPLA2 (Homo sapiens, UniProt P39877)
T1 sequence (P39877 21-138): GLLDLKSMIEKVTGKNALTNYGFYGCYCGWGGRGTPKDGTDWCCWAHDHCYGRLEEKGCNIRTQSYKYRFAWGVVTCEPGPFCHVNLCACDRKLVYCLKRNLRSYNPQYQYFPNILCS
Test: mixed-micelle radiolabelled phospholipid
Type: biochemical

In the case of `CCCC[C@H](CCC(=O)O)NC(=O)CCCCCCc1ccccc1` [compound 42, (R)-4-(7-Phenylheptanamido)octanoic acid], the “GV sPLA2” value is reported as 0.003 ± 0.0004 mole fraction (XI(50)).
